Results taken from US12600705B2, “Heat shock protein modulators and anti-Huntington disease therapeutic agents” (UNIVERSITY OF PITTSBURGH-OF THE COMMONWEALTH SYSTEM OF …, priority 2020, dated 2026).

Tests used:
[1] = test system: HEK293 cells that express an HTT exon containing 17 glutamine repeats (HTT17Q-mCherry); experiment: Huntington's Disease (HD) model: protein aggregates (puncta) per cell in HEK293H cells transfected with HTT17Q-mCherry; settings: for Effect on aggregate suppression compared to the MAL1-271 positive control: Example 1, FIG. 2, 10 μM compound, 6 h; for Activity in cell based HD assay (active analogs of Hsp70 agonist): summary of Example 1
Procedure: Cells were stained for confocal microscope imaging with 4′,6-diamidino-2-phenylindole (DAPI), a fluorescent dye with high affinity to adenine-thymine rich DNA regions. A bright spot detection tool was used to identify and quantify the number of protein aggregates (“dots”) per cell.
Biological Assays: For HD assays, HEK293H cells were grown in DMEM (Sigma-Aldrich, Saint Louis, MO) supplemented with 10% fetal bovine serum (GE Healthcare Hyclone) and 1% penicillin/streptomycin (Thermo Fisher Scientific, Waltham, MA) at 37° C. and at a 5% CO2 atmosphere. Cells were seeded at 250,000 cells/plate in Poly-D-Lysine Coated 35 mm MatTek dishes (P35GC-1.5-10-C, MatTek Corporation, Ashland, MA). After 24 h growth, a total of 4 μg of mCherry tagged-polyglutamine-expanded (17-polyQ-expanded) huntingtin (HTT) was introduced using Lipofectamine 2000 (Invitrogen, Thermo Fisher Scientific) according to the manufacturer's instructions. […] The following day, cells were treated with vehicle (DMSO) as control or with 10 μM of the examined compounds for 6 h. The cells were then washed with PBS and fixed in 4% formaldehyde for 15 min at room temperature. Finally, cells were stained with DAPI (1:250 in PBS) for 4 h and maintained in PBS for confocal microscope imaging.
Complete volumes of cells were acquired at 0.5-μm steps, and volumes were reconstructed and analyzed using Nikon's NIS-Elements software (Nikon Instrument, Melville, NY). Bright spot detection tool was used to identify and quantify the number of protein aggregates (“dots”) per cell. A non-parametric Kruskal-Wallis test analysis was performed using Prism software (GraphPad, La Jolla, CA). Statistically significant differences between control (DMSO) and compound treated samples are indicated by asterisks in figure. To obtain representative images from this experiment, maximum intensity projections of 0.5-μm steps though the entire cell were generated using Nikon's NIS-Elements software.
Cells were stained for confocal microscope imaging with 4′,6-diamidino-2-phenylindole (DAPI) and bright spot detection tool was used to identify and quantify the number of protein aggregates (“dots”) per cell.

[2] = biological target: T1, HDAC 8 (Homo sapiens, UniProt Q9BY41); experiment: HDAC 8 assay (BPS Bioscience kit); settings: footnotes a,c: tested at 1 uM; 100 nM; average of 2 independent measurements
T1 sequence (Q9BY41 1-377): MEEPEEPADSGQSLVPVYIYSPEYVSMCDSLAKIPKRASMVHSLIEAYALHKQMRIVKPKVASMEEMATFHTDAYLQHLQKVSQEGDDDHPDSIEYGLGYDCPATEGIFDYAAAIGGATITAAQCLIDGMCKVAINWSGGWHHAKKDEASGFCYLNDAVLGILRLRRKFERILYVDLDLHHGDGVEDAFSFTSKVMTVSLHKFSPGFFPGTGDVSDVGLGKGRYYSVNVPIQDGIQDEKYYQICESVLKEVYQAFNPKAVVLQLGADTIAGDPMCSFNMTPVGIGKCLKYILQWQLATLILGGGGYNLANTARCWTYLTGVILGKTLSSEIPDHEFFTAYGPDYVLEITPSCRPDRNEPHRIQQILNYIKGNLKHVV
Procedure: (§1) For HDAC 4-8 assays, kits from BPS Bioscience (https://bpsbioscience.com/) were used and their recommended protocols followed. […] Each compound was dissolved in DMSO to generate a 100 μM stock solution, then diluted using HPLC-grade water to prepare 10 μM, 2 μM, and 1 μM solutions. These solutions were used for the assays. […] Assays utilized a BioTek Synergy H1 microplate reader and black Nunc MicroWell 96-well optical-bottom plates with polymer base.
(§2) HDAC 4 (and, by analogy, HDAC 5, 6, 7, and 8): 40 μL of the parent solution was added to each well on the plate. The parent solution was prepared from a fluorogenic HDAC substrate, a 1 mg/mL solution of bovine serum albumin (BSA) in water, and HDAC assay buffer. 5 μL of the inhibitor buffer (10% DMSO in water) was added to the wells designated as “Blank” and “Positive Control” (no inhibitor). 5 μL of the test compound was added to each well designated as “Test Inhibitor”. Different concentrations of TSA (for a standard curve) was added to each well designated as “Standard.” 5 μL of HDAC assay buffer was added to the “Blank” wells. Then, 5 μL of HDAC 4 human recombinant enzyme was added to the wells designated as “Positive Control”, “Test Inhibitor”, and “Standard.” The plate was then warmed in an incubator at 37° C. with a rocker platform for 30 min After the incubation, 50 μL of 2×HDAC Developer solution was added to each well. The plate was returned to the incubator and was shaken on the rocker for an additional 15 min. at room temperature. Afterwards, the plate was analyzed using a BioTek Synergy H1 microplate reader, taking two independent readings per well that were subsequently averaged.

[3] = biological target: HDAC 4 human recombinant enzyme (Homo sapiens, UniProt P56524); experiment: HDAC 4 assay (BPS Bioscience kit); settings: Compound tested at 1 uM
Sequence of HDAC 4 human recombinant enzyme (P56524 whole entry): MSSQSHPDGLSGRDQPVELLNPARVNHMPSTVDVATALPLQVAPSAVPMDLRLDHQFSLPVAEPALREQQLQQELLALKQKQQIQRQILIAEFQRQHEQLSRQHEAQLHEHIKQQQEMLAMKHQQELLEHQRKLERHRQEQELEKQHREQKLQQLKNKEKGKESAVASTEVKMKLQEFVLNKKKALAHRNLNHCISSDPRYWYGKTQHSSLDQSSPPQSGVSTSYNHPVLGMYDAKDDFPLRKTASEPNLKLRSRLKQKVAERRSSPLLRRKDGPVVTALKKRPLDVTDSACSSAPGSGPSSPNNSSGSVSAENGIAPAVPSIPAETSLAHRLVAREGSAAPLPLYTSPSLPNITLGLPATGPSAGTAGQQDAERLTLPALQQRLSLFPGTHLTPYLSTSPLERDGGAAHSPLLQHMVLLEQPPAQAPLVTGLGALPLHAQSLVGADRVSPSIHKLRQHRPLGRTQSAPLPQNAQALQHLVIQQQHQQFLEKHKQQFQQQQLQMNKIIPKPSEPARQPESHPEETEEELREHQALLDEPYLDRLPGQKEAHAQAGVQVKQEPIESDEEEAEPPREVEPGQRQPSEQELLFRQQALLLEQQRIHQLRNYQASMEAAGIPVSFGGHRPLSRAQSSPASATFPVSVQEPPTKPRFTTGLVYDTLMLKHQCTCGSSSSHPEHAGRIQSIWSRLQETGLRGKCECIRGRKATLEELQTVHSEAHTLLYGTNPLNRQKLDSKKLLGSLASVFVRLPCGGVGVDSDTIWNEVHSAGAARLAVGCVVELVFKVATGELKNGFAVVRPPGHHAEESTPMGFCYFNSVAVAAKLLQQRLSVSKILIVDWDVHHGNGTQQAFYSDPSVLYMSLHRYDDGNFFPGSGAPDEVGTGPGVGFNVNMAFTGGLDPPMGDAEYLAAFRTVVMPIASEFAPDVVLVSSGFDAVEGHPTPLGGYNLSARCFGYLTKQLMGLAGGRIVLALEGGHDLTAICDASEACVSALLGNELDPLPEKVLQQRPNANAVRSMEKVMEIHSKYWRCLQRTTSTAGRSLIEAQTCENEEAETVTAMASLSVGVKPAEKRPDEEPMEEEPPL
Procedure: as §1
(§3) HDAC 4 (and, by analogy, HDAC 5, 6, 7, and 8): 40 μL of the parent solution was added to each well on the plate. The parent solution was prepared from a fluorogenic HDAC substrate, a 1 mg/mL solution of bovine serum albumin (BSA) in water, and HDAC assay buffer. 5 μL of the inhibitor buffer (10% DMSO in water) was added to the wells designated as “Blank” and “Positive Control” (no inhibitor). 5 μL of the test compound was added to each well designated as “Test Inhibitor”. Different concentrations of TSA (for a standard curve) was added to each well designated as “Standard.” 5 μL of HDAC assay buffer was added to the “Blank” wells. […] Afterwards, the plate was analyzed using a BioTek Synergy H1 microplate reader, taking two independent readings per well that were subsequently averaged.

[4] = biological target: T2, HDAC 7 (Homo sapiens, UniProt Q8WUI4); experiment: HDAC 7 assay (BPS Bioscience kit)
T2 sequence (Q8WUI4 1-952): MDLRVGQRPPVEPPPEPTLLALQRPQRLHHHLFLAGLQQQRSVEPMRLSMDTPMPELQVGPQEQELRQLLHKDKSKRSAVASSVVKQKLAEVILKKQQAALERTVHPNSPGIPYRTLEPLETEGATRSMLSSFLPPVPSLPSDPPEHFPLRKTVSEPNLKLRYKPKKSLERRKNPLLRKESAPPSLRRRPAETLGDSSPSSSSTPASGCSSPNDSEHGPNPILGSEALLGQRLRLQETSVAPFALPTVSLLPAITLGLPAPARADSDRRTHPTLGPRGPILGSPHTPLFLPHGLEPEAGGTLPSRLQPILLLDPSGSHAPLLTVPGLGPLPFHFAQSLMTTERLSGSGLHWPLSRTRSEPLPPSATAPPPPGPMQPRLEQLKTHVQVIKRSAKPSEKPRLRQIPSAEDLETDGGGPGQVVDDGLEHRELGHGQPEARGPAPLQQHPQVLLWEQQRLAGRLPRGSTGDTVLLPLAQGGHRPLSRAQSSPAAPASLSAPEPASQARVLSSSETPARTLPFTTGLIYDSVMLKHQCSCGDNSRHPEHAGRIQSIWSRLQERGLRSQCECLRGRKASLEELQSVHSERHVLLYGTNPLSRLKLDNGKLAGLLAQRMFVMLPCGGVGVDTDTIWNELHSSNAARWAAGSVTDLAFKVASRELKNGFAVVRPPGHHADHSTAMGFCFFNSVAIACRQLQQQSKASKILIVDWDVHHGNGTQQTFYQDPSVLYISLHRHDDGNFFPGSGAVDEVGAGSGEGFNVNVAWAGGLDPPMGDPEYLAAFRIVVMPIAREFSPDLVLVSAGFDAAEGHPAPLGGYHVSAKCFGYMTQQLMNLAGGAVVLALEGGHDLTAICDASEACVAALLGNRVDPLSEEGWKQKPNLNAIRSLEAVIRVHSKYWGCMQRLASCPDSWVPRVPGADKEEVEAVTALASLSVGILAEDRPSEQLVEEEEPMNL
Procedure: as §1, §3

[5] = biological target: T3, HDAC 6 (Homo sapiens, UniProt Q9UBN7); experiment: HDAC 6 assay (BPS Bioscience kit); settings: footnotes b,c: tested at 200 nM; 100 nM; variable, average of 2 independent measurements
T3 sequence (Q9UBN7 1-1215): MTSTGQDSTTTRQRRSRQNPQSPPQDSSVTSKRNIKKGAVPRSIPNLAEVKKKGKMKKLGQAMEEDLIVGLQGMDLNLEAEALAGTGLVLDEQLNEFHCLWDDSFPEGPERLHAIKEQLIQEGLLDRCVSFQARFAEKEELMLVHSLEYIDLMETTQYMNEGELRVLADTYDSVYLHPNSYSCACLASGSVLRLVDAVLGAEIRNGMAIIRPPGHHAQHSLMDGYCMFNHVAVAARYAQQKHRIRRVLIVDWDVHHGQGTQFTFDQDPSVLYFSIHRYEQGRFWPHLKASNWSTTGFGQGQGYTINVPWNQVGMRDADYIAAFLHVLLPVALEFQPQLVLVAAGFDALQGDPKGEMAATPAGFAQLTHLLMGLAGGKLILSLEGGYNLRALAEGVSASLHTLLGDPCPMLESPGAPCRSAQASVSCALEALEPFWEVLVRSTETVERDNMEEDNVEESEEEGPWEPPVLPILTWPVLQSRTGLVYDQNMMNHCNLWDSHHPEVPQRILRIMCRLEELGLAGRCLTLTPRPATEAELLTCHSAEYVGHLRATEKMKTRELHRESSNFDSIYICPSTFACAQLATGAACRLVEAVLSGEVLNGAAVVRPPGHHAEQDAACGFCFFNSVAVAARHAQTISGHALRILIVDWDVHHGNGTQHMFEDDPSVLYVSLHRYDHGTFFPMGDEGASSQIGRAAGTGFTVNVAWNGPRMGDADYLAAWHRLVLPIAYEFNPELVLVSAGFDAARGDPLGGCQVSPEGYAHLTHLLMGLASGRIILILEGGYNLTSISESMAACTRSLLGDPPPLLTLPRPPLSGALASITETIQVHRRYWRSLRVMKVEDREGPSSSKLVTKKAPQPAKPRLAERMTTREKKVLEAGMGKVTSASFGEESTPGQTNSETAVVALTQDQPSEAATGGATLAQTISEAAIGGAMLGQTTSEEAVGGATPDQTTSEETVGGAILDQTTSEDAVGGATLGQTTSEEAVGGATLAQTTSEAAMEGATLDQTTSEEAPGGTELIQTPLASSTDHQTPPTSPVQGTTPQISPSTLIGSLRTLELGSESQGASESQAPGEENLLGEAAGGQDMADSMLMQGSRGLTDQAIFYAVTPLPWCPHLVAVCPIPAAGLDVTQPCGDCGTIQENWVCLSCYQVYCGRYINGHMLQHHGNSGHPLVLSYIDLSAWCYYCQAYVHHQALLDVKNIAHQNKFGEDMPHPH
Procedure: as §1, §2

[6] = test system: HDAC 1-3; experiment: HDAC 1-3 assay (BioVision kit, HeLa nuclear extract); settings: Compound tested at 1 uM
Procedure: For HDAC 1-3 assays, kits from BioVision Incorporated (https://www.biovision.com/) were used and their recommended protocols followed. […] Each compound was dissolved in DMSO to generate a 100 μM stock solution, then diluted using HPLC-grade water to prepare 10 μM, 2 μM, and 1 μM solutions. These solutions were used for the assays. […] Assays utilized a BioTek Synergy H1 microplate reader and black Nunc MicroWell 96-well optical-bottom plates with polymer base.
HDAC 1-3: 10 μL of each diluted compound (10 μM) and 40 μL of HPLC-grade water were mixed and added into a well on the plate. […] Then, 50 μL of the reaction mixture was added to each well and the solution was mixed thoroughly. The reaction mixture consisted of 500 μL of 10×HDAC Assay buffer, 100 μL of HeLa nuclear extract, 250 μL of HDAC substrate, and 1.65 mL of HPLC-grade water. The plate was then warmed in an incubator at 37° C. with a rocker platform and was incubated for 30 min. After the incubation, 10 μL of Lysine Developer solution was added to each well. The plate was kept in the incubator for an additional 30 min. Afterwards, the plate was analyzed using a BioTek Synergy H1 microplate reader, taking two independent readings per well that were subsequently averaged.

[7] = biological target: HDAC 5 (Homo sapiens, UniProt Q9UQL6); experiment: HDAC 5 assay (BPS Bioscience kit)
Sequence of HDAC 5 (Q9UQL6 whole entry): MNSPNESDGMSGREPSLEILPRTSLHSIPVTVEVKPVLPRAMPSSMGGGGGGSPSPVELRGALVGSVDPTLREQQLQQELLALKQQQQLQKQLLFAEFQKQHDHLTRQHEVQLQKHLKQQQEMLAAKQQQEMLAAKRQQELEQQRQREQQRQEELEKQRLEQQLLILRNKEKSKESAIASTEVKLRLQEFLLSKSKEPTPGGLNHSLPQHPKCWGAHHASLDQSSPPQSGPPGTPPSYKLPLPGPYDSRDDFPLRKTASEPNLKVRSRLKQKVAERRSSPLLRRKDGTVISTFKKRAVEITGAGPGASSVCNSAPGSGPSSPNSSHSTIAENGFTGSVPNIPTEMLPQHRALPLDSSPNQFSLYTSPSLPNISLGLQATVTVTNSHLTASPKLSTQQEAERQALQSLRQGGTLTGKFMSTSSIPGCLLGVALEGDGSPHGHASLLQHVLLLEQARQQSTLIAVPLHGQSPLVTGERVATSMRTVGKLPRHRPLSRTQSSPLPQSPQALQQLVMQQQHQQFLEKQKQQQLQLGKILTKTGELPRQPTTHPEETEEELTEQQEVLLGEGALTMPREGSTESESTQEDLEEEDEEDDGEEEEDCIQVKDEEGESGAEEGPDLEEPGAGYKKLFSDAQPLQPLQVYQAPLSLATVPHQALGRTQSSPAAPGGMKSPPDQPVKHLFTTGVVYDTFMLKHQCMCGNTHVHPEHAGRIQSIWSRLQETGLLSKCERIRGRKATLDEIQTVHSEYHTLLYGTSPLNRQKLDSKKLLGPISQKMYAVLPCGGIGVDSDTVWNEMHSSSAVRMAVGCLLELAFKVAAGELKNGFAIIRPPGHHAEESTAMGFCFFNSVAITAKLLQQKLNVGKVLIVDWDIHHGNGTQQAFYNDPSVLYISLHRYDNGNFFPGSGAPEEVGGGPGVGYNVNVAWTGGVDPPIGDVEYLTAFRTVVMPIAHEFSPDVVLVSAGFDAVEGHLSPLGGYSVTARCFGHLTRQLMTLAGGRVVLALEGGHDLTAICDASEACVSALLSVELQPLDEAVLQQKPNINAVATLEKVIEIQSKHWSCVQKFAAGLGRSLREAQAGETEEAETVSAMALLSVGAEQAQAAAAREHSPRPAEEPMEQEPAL
Procedure: as §1, §3

Row | Percent inhibition HDAC 8 [2] [%^e] | Percent inhibition HDAC 4 [3] | inhibition at 0.1 µM ([4]; read-out: Percent inhibition HDAC 7) [%] | Percent inhibition HDAC 6 [5] | Percent inhibition HDAC 5 ([7]; Compound tested at 200 nM) | Percent inhibition HDAC 7 ([4]; Compound tested at 100 nM) | inhibition at 0.2 µM ([7]; read-out: Percent inhibition HDAC 5) [%] | SMILES | Effect on aggregate suppression compared to the MAL1-271 positive control [1] | Activity in cell based HD assay (active analogs of Hsp70 agonist) [1] | Percent inhibition HDAC 1-3 [6]
1 | 60 | NIA | 1 | NIA | NIA | – | – | COC(=O)CCCN1C=C(C(=O)O)C(c2ccc(Cl)cc2Cl)NS1(=O)=O (stereo not shown) [Compound 10g, 3-(2,4-Dichlorophenyl)-6-(4-methoxy-4-oxobutyl)-3,6-dihydro-2H-1,2,6-thiadiazine-4-carboxylic acid 1,1-dioxide] | equally effective | active | NIA
2 | 37 | NIA | – | 40%^d | – | NIA | 9 | CCOC(=O)C1=CNS(=O)(=O)N(Cc2ccc(C(=O)O)cc2)C1c1ccc(Cl)cc1Cl (stereo not shown) [Compound 10i, 4-((3-(2,4-Dichlorophenyl)-4-(ethoxycarbonyl)-1,1-dioxido-3,6-dihydro-2H-1,2,6-thiadiazin-2-yl)methyl)benzoic acid] | equally effective | active | NIA
